Source: patent US20250145585A1, “HETEROCYCLIC INHIBITORS OF IGF-1R FOR TREATMENT OF DISEASE” (HORIZON THERAPEUTICS IRELAND DAC, priority 2023, published 2025)

Target: T1, IGF-1R (Homo sapiens, UniProt P08069)
T1 construct: expressed in transfected cells
Assay: Example B-2: IGF-1R Assay (PathHunter cell lines, EC80 agonist challenge, chemiluminescent detection)
Format: cell-based
Conditions: PathHunter cells, compound 60 minutes at 37° C., EC80 agonist 3 hours; read-out: IC50, Biological Activity against IGF-1R (Table B2)
In short: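 PathHunter cells were pre-incubated with compound for 60 min at 37° C (1% vehicle), then challenged with EC80 agonist for 3 h at room temperature. Chemiluminescent detection after 1 h gave % inhibition relative to EC80 and vehicle controls, from which IC50 was derived.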

T1 sequence (P08069 31-1367): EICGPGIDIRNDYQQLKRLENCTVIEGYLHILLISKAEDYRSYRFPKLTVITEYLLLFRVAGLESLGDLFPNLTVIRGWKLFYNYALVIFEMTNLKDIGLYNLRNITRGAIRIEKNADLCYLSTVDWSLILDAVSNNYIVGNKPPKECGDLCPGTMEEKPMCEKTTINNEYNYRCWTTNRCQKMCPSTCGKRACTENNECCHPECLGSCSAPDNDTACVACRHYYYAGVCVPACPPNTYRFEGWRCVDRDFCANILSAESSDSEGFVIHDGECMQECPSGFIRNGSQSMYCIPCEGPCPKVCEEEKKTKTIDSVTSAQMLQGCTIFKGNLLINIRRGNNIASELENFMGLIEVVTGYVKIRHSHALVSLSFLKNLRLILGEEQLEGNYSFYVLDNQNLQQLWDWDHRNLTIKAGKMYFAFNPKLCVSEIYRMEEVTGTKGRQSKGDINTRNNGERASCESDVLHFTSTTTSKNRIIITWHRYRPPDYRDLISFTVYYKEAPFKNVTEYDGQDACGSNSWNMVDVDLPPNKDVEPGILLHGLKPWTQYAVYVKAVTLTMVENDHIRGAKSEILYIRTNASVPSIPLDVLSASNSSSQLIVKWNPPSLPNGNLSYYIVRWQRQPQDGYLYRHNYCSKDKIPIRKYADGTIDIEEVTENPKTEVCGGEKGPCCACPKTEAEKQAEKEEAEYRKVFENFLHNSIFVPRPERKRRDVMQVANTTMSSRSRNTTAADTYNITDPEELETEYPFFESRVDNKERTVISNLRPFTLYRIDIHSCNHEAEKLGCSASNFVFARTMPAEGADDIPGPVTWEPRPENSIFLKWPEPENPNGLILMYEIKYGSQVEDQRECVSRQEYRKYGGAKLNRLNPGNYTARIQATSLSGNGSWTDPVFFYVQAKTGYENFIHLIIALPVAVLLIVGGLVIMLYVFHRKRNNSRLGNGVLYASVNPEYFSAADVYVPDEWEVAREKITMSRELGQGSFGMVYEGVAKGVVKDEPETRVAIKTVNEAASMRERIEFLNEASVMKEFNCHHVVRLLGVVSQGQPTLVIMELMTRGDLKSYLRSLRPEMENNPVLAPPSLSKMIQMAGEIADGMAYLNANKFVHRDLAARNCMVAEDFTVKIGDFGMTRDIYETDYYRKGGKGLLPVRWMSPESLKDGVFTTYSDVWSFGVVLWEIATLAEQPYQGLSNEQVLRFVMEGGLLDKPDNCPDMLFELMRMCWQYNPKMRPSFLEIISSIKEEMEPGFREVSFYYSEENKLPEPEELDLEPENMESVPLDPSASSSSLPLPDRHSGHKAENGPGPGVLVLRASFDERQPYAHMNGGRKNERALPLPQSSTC

SMILES	IC50 [nM]
CC1(C)C(=O)N(c2cc3c(cc2Br)C2(CCC2)CO3)C(=O)N1Cc1ccnc2c1CC(=O)N2 [Compound 52, 3-(5-bromo-2H-spiro[benzofuran-3,1′-cyclobutan]-6-yl)-5,5-dimethyl-1-((2-oxo-2,3-dihydro-1H-pyrrolo[2,3-b]pyridin-4-yl)methyl)imidazolidine-2,4-dione]	≤ 500
CC1(C)C(=O)N(c2ccc(OC(F)(F)F)c(NC(=O)CN3CCOCC3)c2)C(=O)N1Cc1ccnc2c1CC(=O)N2 [Compound 75, N-(5-(4,4-dimethyl-2,5-dioxo-3-((2-oxo-2,3-dihydro-1H-pyrrolo[2,3-b]pyridin-4-yl)methyl)imidazolidin-1-yl)-2-(trifluoromethoxy)phenyl)-2-morpholinoacetamide]	≤ 500
CC1(C)C(=O)N(c2ccc(C3(C(F)(F)F)CC3)cc2)C(=O)N1Cc1ccnc2c1OCC1(CC1)N2 [Compound 58, 1-((2′H,4′H-spiro[cyclopropane-1,3′-pyrido[3,2-b][1,4]oxazin]-8′-yl)methyl)-5,5-dimethyl-3-(4-(1-(trifluoromethyl)cyclopropyl)phenyl) imidazolidine-2,4-dione]	≤ 500
CC1(C)C(=O)N(c2ccc(OC(F)(F)F)c(N3CCOCC3)c2)C(=O)N1Cc1ccnc2c1CC(=O)N2 [Compound 74, 5,5-dimethyl-3-(3-morpholino-4-(trifluoromethoxy)phenyl)-1-((2-oxo-2,3-dihydro-1H-pyrrolo[2,3-b]pyridin-4-yl)methyl)imidazolidine-2,4-dione]	≤ 500
CC(C)(C#N)c1ccc(N2C(=O)N(Cc3ccnc4c3CC(=O)N4)C(C)(C)C2=O)cc1 [Compound 29, 2-(4-(4,4-dimethyl-2,5-dioxo-3-((2-oxo-2,3-dihydro-1H-pyrrolo[2,3-b]pyridin-4-yl)methyl)imidazolidin-1-yl)phenyl)-2-methylpropanenitrile]	≤ 500
CC1(C)C(=O)N(c2ccc(C3(C(F)(F)F)CC3)cc2)C(=O)N1Cc1ccnc2c1CCN2 [Compound 33, 1-((2,3-dihydro-1H-pyrrolo[2,3-b]pyridin-4-yl)methyl)-5,5-dimethyl-3-(4-(1-(trifluoromethyl)cyclopropyl)phenyl) imidazolidine-2,4-dione]	≤ 500
CC1(C)C(=O)N(c2ccc3c(c2)N(C(=O)C2CC2)CC32CC2)C(=O)N1Cc1ccnc2c1CC(=O)N2 [Compound 46, 3-(1′-(cyclopropanecarbonyl)spiro[cyclopropane-1,3′-indolin]-6′-yl)-5,5-dimethyl-1-((2-oxo-2,3-dihydro-1H-pyrrolo[2,3-b]pyridin-4-yl)methyl)imidazolidine-2,4-dione]	≤ 500
CC1(C)C(=O)N(c2ccc(C3(C(F)(F)F)CC3)cc2)C(=O)N1Cc1ccnc(N[C@H]2C[C@H]2F)c1 [Compound 142, 1-((2-(((1S,2R)-2-fluorocyclopropyl)amino)pyridin-4-yl)methyl)-5,5-dimethyl-3-(4-(1-(trifluoromethyl)cyclopropyl)phenyl)imidazolidine-2,4-dione]	≤ 500
CC1(C)C(=O)N(c2ccc(C3(C#N)CC3(C)C)cc2)C(=O)N1Cc1ccnc2c1CC(=O)N2 (centres unmarked) [Compound 61, 1-(4-(4,4-dimethyl-2,5-dioxo-3-((2-oxo-2,3-dihydro-1H-pyrrolo[2,3-b]pyridin-4-yl)methyl)imidazolidin-1-yl)phenyl)-2,2-dimethylcyclopropane-1-carbonitrile]	≤ 500

The next lines start with the values.

IC50 [nM]	SMILES
≤ 500	CC(C)(C#N)c1ccc(N2C(=O)N(Cc3ccnc(N[C@H]4[C@@H]5COC[C@@H]54)c3)C(C)(C)C2=O)cc1 [Compound 162, 2-(4-(3-((2-(((1R,5S,6r)-3-oxabicyclo[3.1.0]hexan-6-yl)amino)pyridin-4-yl)methyl)-4,4-dimethyl-2,5-dioxoimidazolidin-1-yl)phenyl)-2-methylpropanenitrile]
≤ 500	CC1(C)CN(S(C)(=O)=O)c2cc(N3C(=O)N(Cc4ccnc(N[C@H]5CCOC5)c4)C(C)(C)C3=O)ccc21 [Compound 201, (S)-3-(3,3-dimethyl-1-(methylsulfonyl)indolin-6-yl)-5,5-dimethyl-1-((2-((tetrahydrofuran-3-yl)amino)pyridin-4-yl)methyl)imidazolidine-2,4-dione]
≤ 500	CC1(C)C(=O)N(c2ccc(C3(C(F)(F)F)CC3)cc2)C(=O)N1Cc1ccnc(NCc2ccncn2)c1 [Compound 181, 5,5-dimethyl-1-((2-((pyrimidin-4-ylmethyl)amino)pyridin-4-yl)methyl)-3-(4-(1-(trifluoromethyl)cyclopropyl)phenyl) imidazolidine-2,4-dione]
500 to 2000	CC(C)(C)c1ccc(N2C(=O)C(C)(C)N(Cc3ccnc4[nH]ccc34)C2=S)cc1 [Compound 407, 1-((1H-pyrrolo[2,3-b]pyridin-4-yl)methyl)-3-(4-(tert-butyl)phenyl)-5,5-dimethyl-2-thioxoimidazolidin-4-one]
≤ 500	COC[C@@H](C)Nc1cc(CN2C(=O)N(c3ccc(C(C)(C)C#N)cc3)C(=O)C2(C)C)ccn1 [Compound 150, (R)-2-(4-(3-((2-((1-methoxypropan-2-yl)amino)pyridin-4-yl)methyl)-4,4-dimethyl-2,5-dioxoimidazolidin-1-yl)phenyl)-2-methylpropanenitrile]
≤ 500	[2H]C([2H])([2H])Nc1cc(CN2C(=O)N(c3ccc4c(c3)N(S(C)(=O)=O)CC4(C)C)C(=O)C2(C)C)ccn1 [Compound 247, 3-(3,3-dimethyl-1-(methylsulfonyl)indolin-6-yl)-5,5-dimethyl-1-((2-((methyl-d3)amino)pyridin-4-yl)methyl)imidazolidine-2,4-dione]
≤ 500	CC(Nc1cc(CN2C(=O)N(c3ccc4c(c3)N(S(C)(=O)=O)CC43CCC3)C(=O)C2(C)C)ccn1)C1CCOC1 (centres unmarked) [Compound 225, 5,5-dimethyl-3-(1′-(methylsulfonyl)spiro[cyclobutane-1,3′-indolin]-6′-yl)-1-((2-((1-(tetrahydrofuran-3-yl)ethyl)amino)pyridin-4-yl)methyl)imidazolidine-2,4-dione]
500 to 2000	CC(C)Nc1cc(CN2C(=O)N(c3ccc(C(C)(C)C#N)nc3)C(=O)C2(C)C)ccn1 [Compound 143, 2-(5-(3-((2-(isopropylamino)pyridin-4-yl)methyl)-4,4-dimethyl-2,5-dioxoimidazolidin-1-yl)pyridin-2-yl)-2-methylpropanenitrile]
≤ 500	CC1(C)CN(S(C)(=O)=O)c2cc(N3C(=O)N(Cc4ccnc(NCc5cc[nH]n5)c4)C(C)(C)C3=O)ccc21 [Compound 245, 1-((2-(((1H-pyrazol-3-yl)methyl)amino)pyridin-4-yl)methyl)-3-(3,3-dimethyl-1-(methylsulfonyl)indolin-6-yl)-5,5-dimethylimidazolidine-2,4-dione]
> 10000	CC1(C)C(=O)N(c2ccc(OC(F)(F)F)c(NS(C)(=O)=O)c2)C(=O)N1Cc1ccnc2c1CC(=O)N2 [Compound 283, N-(5-(4,4-dimethyl-2,5-dioxo-3-((2-oxo-2,3-dihydro-1H-pyrrolo[2,3-b]pyridin-4-yl)methyl)imidazolidin-1-yl)-2-(trifluoromethoxy)phenyl) methanesulfonamide]
500 to 2000	C[C@@H](CC#N)Nc1cc(CN2C(=O)N(c3ccc(C(C)(C)C#N)cc3)C(=O)C2(C)C)ccn1 [Compound 151, (S)-3-((4-((3-(4-(2-cyanopropan-2-yl)phenyl)-5,5-dimethyl-2,4-dioxoimidazolidin-1-yl)methyl)pyridin-2-yl)amino)butanenitrile]
